Earlier results, collected in patent US20230181491A1, “COMPOSITIONS AND METHODS FOR THE TREATMENT AND MANAGEMENT OF INFLAMMATION USING HYDROXYNORKETAMINE” (SPIRIFY PHARMA INC., priority 2020, published 2023).
Counter-ions that a name gives are not always drawn.

system: rats; details: cited from earlier work

Row | Molecule | spontaneous locomotor activity during the postanesthetic recovery phase
1 | CNC1(c2ccccc2Cl)CCCCC1=O (racemic) [(R,S)-ketamine hydrochloride] | increased spontaneous locomotor activity
2 | NC1(c2ccccc2Cl)CCCCC1=O (racemic) [(R,S)-norketamine] | increased spontaneous locomotor activity
3 | (2R,6R;2S,6S)-HNK | no anesthetic or hyperlocomotor effects
